Measurements: patent US20140377340A1, “HLA-DR BINDING PEPTIDES AND THEIR USES” (priority 2007, published 2014)

Legend:
purified HLA DRB1*0101 = target: T1, purified HLA DRB1*0101 (Homo sapiens, UniProt P01903+P01911, A100R/D57E/F55L/F60I/F76Y/I96L/L162R/M171V/P40L/Q125E/R42F/V115G/Y59C); assay: HLA-DR radioligand binding inhibition assay, DRB1*0101; details: IC50 nM purified HLA DRB1 *0101, purified HLA DRB1*0101
T1 construct: purified from EBV transformed homozygous cell lines or single MHC allele transfected 721.221, C1R, or fibroblast lines; made in house
Summary of the method: (§1)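 The probe, 1-10 nM radiolabeled peptide, was incubated with 1 μM to 1 nM HLA-DR for 2 days in the presence of protease inhibitors.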

purified HLA DRB1*0301 = target: T2, purified HLA DRB1*0301 (Homo sapiens, UniProt P01903+P01911, A100K/A102G/A103R/A169T/F55Y/I96L/K41T/L162R/M171V/P40S/Q125H/Q178H/Q39Y/R42S/S66N/T106N/T262R/W38E/Y61H); assay: HLA-DR radioligand binding inhibition assay, DRB1*0301; details: IC50 nM purified HLA DRB1 *0301, purified HLA DRB1*0301
T2 construct: purified from EBV transformed homozygous cell lines or single MHC allele transfected 721.221, C1R, or fibroblast lines; made in house
Procedure: (§2) Instead, wells of an opaque white 96-well Optiplate (Packard) are coated with 3 μg (100 μl@ 30 μg/ml) of HLA-specific antibody (Ab) that “capture” complexes of radiolabeled MHC and unlabeled peptide transferred from the molecular binding assay plate in 100 μl of 0.05% NP40/PBS. After a 3-hour incubation period, the supernatant is decanted and scintillation fluid (Microscint 20) added. Captured complexes are then measured on a microplate scintillation and luminescence counter (TopCount NXTTM; Packard).
(§3) HLA-DR purification. Fifteen distinct HLA-DR molecules were used in quantitative assays to measure the binding of peptides to solubilized HLA-DR molecules. […] Briefly, columns of inactivated Sepharose CL4B and Protein A Sepharose were used as pre-columns. HLA-DR molecules were captured by passage of lysates over LB3.1 monoclonal antibody (anti-HLA-DRA) columns. Antibody columns were washed with 10 mM Tris-HCL, pH8.0 with 1% (v/v) NP-40, followed by PBS containing 0.4% (w/v) n-octylglucoside.
(§4) Briefly, 1-10 nM of radiolabeled peptide was co-incubated for 2 days at either room temperature or 37° C. with 1 μM to 1 nM purified HLA-DR molecules in the presence of a cocktail of protease inhibitors. Assays were performed at various pH conditions, ranging from pH 4 to pH 7. […] After incubation, the percentage of HLA-DR-bound radioactivity is determined by capturing HLA-DR/peptide complexes on Optiplates (Packard Instruments, Meriden, Conn.) coated with the LB3.1 antibody and determining bound counts per minute using the TopCount microscintillation counter (Packard Instruments).

purified HLA DRB1*0401 = target: T3, purified HLA DRB1*0401 (Homo sapiens, UniProt P01903+P01911, A100K/A169T/F76Y/I96L/K127E/L162R/M171V/N62H/P40V/Q125Y/R42H/S133A/S149N/S66Y/V115G/V209L/W38E); assay: HLA-DR radioligand binding inhibition assay, DRB1*0401; details: IC50 nM purified HLA DRB1 *0401, purified HLA DRB1*0401
T3 construct: purified from EBV transformed homozygous cell lines or single MHC allele transfected 721.221, C1R, or fibroblast lines; made in house
Summary of the method: as §1

purified HLA DRB1*1101 = target: T4, purified HLA DRB1*1101 (Homo sapiens, UniProt P01903+P01911, A100R/A169T/A87E/I96F/K41T/L162R/M171V/P40S/Q125H/Q178H/Q39Y/Q99D/R42S/S66Y/T262R/V115G/W38E); assay: HLA-DR radioligand binding inhibition assay, DRB1*1101; details: IC50 nM purified HLA DRB1 *1101, purified HLA DRB1*1101
T4 construct: purified from EBV transformed homozygous cell lines or single MHC allele transfected 721.221, C1R, or fibroblast lines; made in house
Summary of the method: as §1

purified HLA DRB1*1302 = target: T5, purified HLA DRB1*1302 (Homo sapiens, UniProt P01903+P01911, A100E/A169T/K41T/L162R/M171V/P40S/Q125H/Q178H/Q39Y/Q99D/R42S/S66N/T262R/V115G/W38E/Y61H); assay: HLA-DR radioligand binding inhibition assay, DRB1*1302
T5 construct: purified from EBV transformed homozygous cell lines or single MHC allele transfected 721.221, C1R, or fibroblast lines; made in house
Summary of the method: as §1

purified HLA DRB1*1501 = target: T6, purified HLA DRB1*1501 (Homo sapiens, UniProt P01903+P01911); assay: HLA-DR radioligand binding inhibition assay, DRB1*1501
T6 construct: purified from EBV transformed homozygous cell lines or single MHC allele transfected 721.221, C1R, or fibroblast lines; made in house
Summary of the method: as §1

purified HLA DRB1*0405 = target: T7, purified HLA DRB1*0405 (Homo sapiens, UniProt P01903+P01911, A100R/A169T/D86S/F76Y/I96L/K127E/L162R/M171V/N62H/P40V/Q125Y/R42H/S133A/S149N/S66Y/V115G/V209L/W38E); assay: HLA-DR radioligand binding inhibition assay, DRB1*0405; details: IC50 nM purified HLA DRB1 *0405, purified HLA DRB1*0405
T7 construct: purified from EBV transformed homozygous cell lines or single MHC allele transfected 721.221, C1R, or fibroblast lines; made in house
Summary of the method: as §1

purified HLA DRB1*0701 = target: T8, purified HLA DRB1*0701 (Homo sapiens, UniProt P01903+P01911, A100R/A102G/A103Q/D57E/D86V/E43K/F76Y/K127E/L162R/M171V/P40G/Q125H/Q99D/R33Q/R42Y/R54Q/S133A/S66F/T210M/V115G/Y107V/Y59L/Y89S); assay: HLA-DR radioligand binding inhibition assay, DRB1*0701; details: IC50 nM purified HLA DRB1 *0701, purified HLA DRB1*0701
T8 construct: purified from EBV transformed homozygous cell lines or single MHC allele transfected 721.221, C1R, or fibroblast lines; made in house
Summary of the method: as §1

purified HLA DRB4*0101 = target: T9, purified HLA DRB4*0101 (Homo sapiens, UniProt P01903+P13762, G164S); assay: HLA-DR radioligand binding inhibition assay, DRB4*0101; details: IC50 nM purified HLA DRB4 *0101, purified HLA DRB4*0101
T9 construct: purified from EBV transformed homozygous cell lines or single MHC allele transfected 721.221, C1R, or fibroblast lines; made in house
Procedure: as §2, §3, §4

purified HLA DRB5*0101 = target: T10, purified HLA DRB5*0101 (Homo sapiens, UniProt P01903+Q30154); assay: HLA-DR radioligand binding inhibition assay, DRB5*0101; details: IC50 nM purified HLA DRB5 *0101, purified HLA DRB5*0101
T10 construct: purified from EBV transformed homozygous cell lines or single MHC allele transfected 721.221, C1R, or fibroblast lines; made in house
Summary of the method: as §1

[1] = system: short term T cell lines from breast or ovarian cancer patients; assay: IFN-γ ELISpot analysis of short term T cell lines (peptide versus protein fragment; natural processing); type: cell-based, human; details: T cell lines respond to culture peptide and to protein fragment; FIGS. 5 and 6
Source text: IFN-γ ELISpot analysis of short term T cell lines generated against HER-2/neu peptides, p53 (Panel A), p83 (Panel B), p88 (Panel C) and p885 (Panel D). […] Each bar is the mean (s.e.m.) of three replicates.
FIG. 6 is identical to FIG. 5 except that the results were obtained using IGFBP-2 derived helper epitopes.

[2] = system: 15 different HLA-DR molecules; assay: HLA-DR binding assays, panel of 15 different HLA-DR molecules (breadth of binding); details: number of the 15 HLA-DR molecules bound (binders: 1000 nM or better)

T4 sequence (P01903 26-254, other chains not shown): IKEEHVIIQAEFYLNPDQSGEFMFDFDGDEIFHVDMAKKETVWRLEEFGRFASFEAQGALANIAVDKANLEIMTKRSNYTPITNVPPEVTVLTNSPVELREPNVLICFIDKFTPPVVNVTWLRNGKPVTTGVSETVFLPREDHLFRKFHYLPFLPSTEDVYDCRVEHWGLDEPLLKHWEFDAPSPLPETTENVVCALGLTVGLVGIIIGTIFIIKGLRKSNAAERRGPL

IC50 (purified HLA DRB1*0101)	IC50 (purified HLA DRB1*0301)	IC50 (purified HLA DRB1*0401)	IC50 (purified HLA DRB1*1101)	IC50 (purified HLA DRB1*1302)	IC50 (purified HLA DRB1*1501)	IC50 (purified HLA DRB1*0405)	IC50 (purified HLA DRB1*0701)	IC50 (purified HLA DRB4*0101)	IC50 (purified HLA DRB5*0101)	SMILES	naturally processed and presented antigen [1]	Total XRN [2]
210 nM	29 nM	640 nM	9130 nM	4 nM	450 nM					CC(C)C[C@H](NC(=O)[C@H](C)NC(=O)[C@H](Cc1ccc(O)cc1)NC(=O)[C@H](CC(N)=O)NC(=O)[C@H](CC(=O)O)NC(=O)[C@H](CCC(=O)O)NC(=O)[C@H](Cc1ccccc1)NC(=O)[C@H](CC(C)C)NC(=O)[C@H](CCC(N)=O)NC(=O)[C@@H](NC(=O)CN)[C@@H](C)O)C(=O)N[C@@H](C)C(=O)N[C@H](C(=O)N[C@@H](CC(C)C)C(=O)N[C@@H](CC(=O)O)C(=O)O)C(C)C [Peptide 9019.0001]		
8210 nM	151 nM	605 nM	756 nM	4750 nM	8180 nM	12900 nM	> 20000 nM	4030 nM	> 20000 nM	CSCC[C@H](NC(=O)[C@H](CC(N)=O)NC(=O)[C@H](CCC(N)=O)NC(=O)[C@H](CCC(N)=O)NC(=O)[C@H](C)NC(=O)[C@H](CCC(N)=O)NC(=O)[C@H](CCCNC(=N)N)NC(=O)[C@H](CC(C)C)NC(=O)[C@H](CO)NC(=O)[C@H](CO)NC(=O)[C@H](CCC(=O)O)NC(=O)[C@H](CC(C)C)NC(=O)[C@H](CC(C)C)NC(=O)[C@H](C)NC(=O)[C@@H](N)CCC(=O)O)C(=O)O [Peptide 9019.0014]		
										CC[C@H](C)[C@H](NC(=O)[C@H](CC(C)C)NC(=O)[C@@H](NC(=O)[C@@H](N)Cc1ccc(O)cc1)C(C)C)C(=O)N[C@@H](C)C(=O)N[C@@H](Cc1c[nH]cn1)C(=O)N[C@@H](CC(N)=O)C(=O)N[C@@H](CCC(N)=O)C(=O)N[C@H](C(=O)N[C@@H](CCCNC(=N)N)C(=O)N[C@@H](CCC(N)=O)C(=O)N[C@H](C(=O)N1CCC[C@H]1C(=O)N[C@@H](CC(C)C)C(=O)N[C@@H](CCC(N)=O)C(=O)O)C(C)C)C(C)C [Peptide 9019.0033]	naturally processed and presented antigens	14
